In US7754677B2, “Composition and method for reducing diarrhea in a mammal” (Hill's Pet Nutrition, Inc., priority 2003, dated 2010):

Key:
T cell lymphocyte = test: T-cell proliferation assay in response to ConA mitogen, blood of dogs fed glutamine supplemented diet; format: in vivo, Beagle dogs; conditions: for T cell proliferation (log10 cpm): ConA mitogen, data collapsed across ConA doses
Procedure: In a further experiment, the efficacy of glutamine as a immune-modulator was examined. 20 Beagle dogs were randomly allocated into 4 groups receiving either basic diet or basic diet supplemented with 1%, 2%, or 4% glutamine. Blood samples were drawn in heparinized tubes from animals 2 hrs after their last feeding on day 1 and 16. Samples were prepared for immune measurement. (T cell proliferation assay).
T-cell proliferation assay. Peripheral blood leukocytes (PBL) in each blood sample were counted using Nova Celltrak II (Beckman Coulter Corp., Fla.). Blood was diluted (1:20) with supplemented media. Diluted blood was plated, in triplicate, in 96 well cell culture plates with the following mitogens diluted in supplemented media: Concanavalin A (0.5 μg/ml, 2.5 μg/ml. Plates were incubated in a humidified incubator containing 7% CO2 at 37° C. for 72 hrs. Cellular DNA was […]. Cellular DNA was harvested on glass fiber paper using a cell harvester (Skatron Instruments Inc., Va.) and suspended with 1.5 ml scintillation cocktail. [^3H]thymidine uptake was quantified as counts per minutes (CPM) using TriCarb 2100TR Liquid Scintillation Analyzer (Packard BioScience Company, Ill.). Counts were normalized to CPM/10,000 cells to account for variation in PBL concentrations.
Concanvalin A (Con A) is a polyclonal T-cell mitogen. […] Thus, the data were collapsed across the different doses of Con A to show the proliferative response of lymphocytes dependent on percentage of glutamine supplemented in the diet.

[1] = Postprandial plasma glutamine dose response study in dogs; format: in vivo
Procedure: In one experiment, a source of glutamine was tested to see if it was bioavailable and able to deliver adequate glutamine to the intestinal cells. The source of glutamine was a wheat hydrolysate with an enrichment of 30% glutamine. A dose response study was carried out in 6 dogs to see if increasing levels of the glutamine source (0, 0.5, 1.0, 2% glutamine content) was detected in the plasma after feeding the diet.

SMILES: NC(=O)CC[C@H](N)C(=O)O [glutamine]
- Lymphocyte proliferation, result in words (T cell lymphocyte; 1% glutamine in diet, versus control group P<0.05): maximum lymphocyte proliferation
- T cell proliferation (log10 cpm) (T cell lymphocyte; 1% supplemental glutamine in diet): 5 log10 cpm
- T-lymphocytes proliferation, result in words (T cell lymphocyte; 1-2% glutamine in diet): enhances overall T-lymphocytes proliferation
- T cell proliferation (log10 cpm) (T cell lymphocyte; 2% supplemental glutamine in diet): 4.8 log10 cpm
- T-lymphocytes proliferation, result in words (T cell lymphocyte; 4% glutamine in diet): not additionally beneficial
- T cell proliferation (log10 cpm) (T cell lymphocyte; 4% supplemental glutamine in diet): 4.5 log10 cpm
- % Change in plasma glutamine from control ([1]; 0.5% supplemented glutamine in food): 3%
- % Change in plasma glutamine from control ([1]; 1.0% supplemented glutamine in food): 10%
- % Change in plasma glutamine from control ([1]; 2.0% supplemented glutamine in food): 15%
